Source: patent US20040063790A1, “Methods for inhibition of angiogenesis” (The Scripps Research Institute, priority 1996, published 2004)
[ ]: non-standard residue; d: D form.

Key:
Assay type in all cases: in vivo, chick
FgM tumors = experiment: Tumor regression in the CAM assay, FgM; settings: 100 μg intravenously 18 hours post-implantation; FIG. 17
Method: As described in Example 5, in addition to visually assessing the effect of anti-αvβ3 antagonists on growth factor or tumor induced angiogenesis, the effect of the antagonists was also assessed by measuring any changes to the tumor mass following exposure. For this analysis, the tumor-induced angiogenesis CAM assay system was prepared as described in Example 4C. At the end of the 7 day incubation period, the resulting tumors were resected from the CAMs and trimmed free of any residual CAM tissue, washed with 1 ml of phosphate buffer saline and wet weights were determined for each tumor.
To further assess the effects of αvβ3 antagonists on tumor growth and survival, fragments of human melanoma and fragments of carcinomas of the lung, pancreas, and larynx were placed on CAMS of 10-day old embryos as described in Example 3A.
Additional tumor regression assays were performed with the αvβ3-reactive peptide 85189 (SEQ ID NO: 15) against 69601 as a control. The assays were performed as described above with the exception that 100 μg of peptide was intravenously injected into the CAM at 18 hours post-implantation. After 48 hours more, the tumors were then resected and wet weights were obtained.

[1] = tested on: tumor-induced angiogenesis; experiment: CAM assay, tumor-induced angiogenesis, intravenous application; settings: intravenous injection
Method: Angiogenesis was induced in the CAM assay system by direct apposition of a tumor fragment on the CAM. Preparation of the chick embryo CAM was identical to the procedure described above. Instead of a filter paper disk, a 50 milligram (mg) to 55 mg in weight fragment of one of human melanoma tumor M21-L, human lung carcinoma tumor UCLAP-3, human pancreatic carcinoma cell line FG (Cheresh et al., Cell 58:945-953, 1989), or human laryngeal carcinoma cell line HEp3, all of which are αvβ3 negative tumors, was placed on the CAM in an area originally devoid of blood vessels.
The M21-L human melanoma cell line, UCLAP-3 human lung carcinoma cell line, FG pancreatic carcinoma cell line, or HEp3 human laryngeal carcinoma cell line, all αvβ3 negative, were used to grow the solid human tumors on the CAMs of chick embryos. A single cell suspension of 8×10^6 M21-L, UCLAP-3, and FB or 5×10^5 HEp3 cells was first applied to the CAMs in a total volume of 30 μl of sterile HBSS. The windows were sealed with tape and the embryos were incubated for 7 days to allow growth of human tumor lesions. At the end of 7 days, now a 17-day embryo, the tumors were resected from the CAMs and trimmed free of surrounding CAM tissue. […]
The effects of peptide exposure to tumor-induced vasculature in the CAM assay system was also assessed. […]

vascular cell apoptosis = experiment: Apoptosis in bFGF-treated CAM, Apop Tag staining; settings: 300 μg/ml; treated two days prior; versus PBS or control peptide 69601
Method: CAM assays with growth factor-induced angiogenesis, as described in Example 4A, were also performed with the synthetic peptides of this invention to determine the effect of cyclic peptides on apoptosis. The peptides cyclo-RGDfV (66203) and cyclo-RADfV (69601) were prepared as described in Example 1. The peptide solutions or PBS were injected into the CAM preparation at a concentration of 300 μg/ml. At 24 and 48 hours, the filter paper and surrounding CAM tissue was dissected and stained with the Apop Tag to detect apoptosis.

Row | Substance | effect on tumor weight, FgM (FgM tumors) | inhibition of tumor-induced blood vessel formation [1] | increase in Apop Tag staining (vascular cell apoptosis) [fold]
1 | cyclo (RADfV) (cyclo(RAD[dF]V); SMILES CC(C)[C@@H]1NC(=O)[C@@H](Cc2ccccc2)NC(=O)[C@H](CC(=O)O)NC(=O)[C@H](C)NC(=O)[C@H](CCCNC(=N)N)NC1=O) [Peptide 69601, reference compound] | lack of effect |  | 
2 | cyclo (RGDfV) [Peptide 66203] |  | formation of blood vessels was inhibited | 3 to 4
